The record followed here is ChEMBL document CHEMBL5584201, “Amphiphilic tribasic galactosamines potentiate rifampicin in Gram-negative bacteria at low Mg++/Ca++concentrations” (Bioorg Med Chem Lett, 2024).

Data set [1] is described as follows: Cytotoxicity against HEK293 cells assessed as cell viability at 9 uM relative to control. The settings on record: human, read-out: Activity. It is filed as toxicity, cell-based.
The test system of data set [2] is Acinetobacter baumannii. The experiment in a line: Potentiation of rifampicin-induced antibacterial activity against Acinetobacter baumannii ATCC 17978 assessed as fold change in rifampicin MIC at 16 microg/ml in high concentration of Ca++ and Mg++ containing media by Mueller-Hinton broth based assay. The settings on record: dose 16 µg/ml. It is filed as functional.

The test system of data set [3] is Escherichia coli. The experiment in a line: Potentiation of rifampicin-induced antibacterial activity against Escherichia coli ATCC 25922 assessed as rifampicin MIC in low salt containing media by Mueller-Hinton broth based assay. It is filed as functional.
Data set [4] has as its system Acinetobacter baumannii. The experiment in a line: Antibacterial activity against Acinetobacter baumannii ATCC 17978 in low salt containing media by Mueller-Hinton broth based assay. It is filed as functional.
Data set [5] deals with Pseudomonas aeruginosa. The experiment in a line: Potentiation of rifampicin-induced antibacterial activity against Pseudomonas aeruginosa PAO1 assessed as rifampicin MIC in low salt containing media by Mueller-Hinton broth based assay. Format: functional.
The subject of data set [6] is Escherichia coli. The experiment in a line: Potentiation of rifampicin-induced antibacterial activity against Escherichia coli ATCC 25922 assessed as fold change in rifampicin MIC at 16 microg/ml in high concentration of Ca++ and Mg++ containing media by Mueller-Hinton broth based assay. Format: functional. The settings on record: dose 16 µg/ml.
Data set [7] deals with Escherichia coli. The experiment in a line: Potentiation of rifampicin-induced antibacterial activity against Escherichia coli […] assessed as rifampicin MIC at 16 microg/ml in high concentration of Ca++ and Mg++ containing media by Mueller-Hinton broth based assay. Format: functional. The following applies: dose 16 µg/ml.
Data set [8] relates to Escherichia coli. Nature of the data set: Potentiation of rifampicin-induced antibacterial activity against Escherichia coli […] assessed as fold change in rifampicin MIC at 16 microg/ml in high concentration of Ca++ and Mg++ containing media by Mueller-Hinton broth based assay. It is filed as functional. The following applies: dose 16 µg/ml.
Data set [9] deals with Escherichia coli. Nature of the data set: Potentiation of rifampicin-induced antibacterial activity against Escherichia coli ATCC 25922 assessed as fold change in rifampicin MIC in low salt containing media by Mueller-Hinton broth based assay. It is filed as functional.
Data set [10] relates to Escherichia coli. The experiment in a line: Potentiation of rifampicin-induced antibacterial activity against Escherichia coli clinical isolate 107115 assessed as fold change in rifampicin MIC at 1/4 MIC in low salt containing media by Mueller-Hinton broth based assay. It is filed as functional.
The test system of data set [11] is Acinetobacter baumannii. Nature of the data set: Potentiation of rifampicin-induced antibacterial activity against Acinetobacter baumannii ATCC 17978 assessed as fold change in rifampicin MIC at 2 to 8 microg/ml in high concentration of Ca++ and Mg++ containing media by Mueller-Hinton broth based assay. Format: functional. The settings on record: dose 2-8 µg/ml.

Data set [12] has as its system Acinetobacter baumannii. The experiment in a line: Potentiation of rifampicin-induced antibacterial activity against Acinetobacter baumannii ATCC 17978 assessed as rifampicin MIC at 2 to 8 microg/ml in high concentration of Ca++ and Mg++ containing media by Mueller-Hinton broth based assay. Format: functional. The settings on record: dose 2-8 µg/ml.

Turning to `CCCCCCCCO[C@@H]1O[C@H](CN)[C@H](N)[C@H](OCc2ccc3ccccc3c2)[C@H]1N`, the viability at 9 µM in data set [1] was 46.4%. In addition, the “fold change (FC)” value in [2] was found to be 1; in data set [6], 1; in data set [8], 8; in [9], 128; in [10], 64; in data set [11], 1. The MIC in [3] amounted to 2 µg/mL; in [4], 16 µg/mL; in data set [5], 8 µg/mL; in data set [7], 16 µg/mL; in [12], 4 µg/mL.
